The text below walks through data of patent publication US20130096097A1, “PHARMACEUTICAL MULTIMERIC PARTICLES, AND MANUFACTURING METHOD FOR SAME” (JAPAN SCIENCE AND TECHNOLOGY AGENCY, priority 2010, published 2013).

For series [1], the system named is Human liver cancer cell lines HepG2. As to the kind of experiment: In vitro anticancer activity, cell viability by Cell Counting Kit-8. The conditions noted are these: for anticancer activity against HepG2 (cell viability): 0.15625-10 μM in terms of SN-38 monomer, 48 hours, FIG. 3. The series is classed as cell-based. The protocol:
Human liver cancer cell lines HepG2 was seeded on 96-well plate in 2×10^4 cells/well. Next day, irinotecan, SN-38 bulk crystal, SN-38 diester dimer nanoparticle, and SN-38 diisocyanate dimer nanoparticle were added to the HepG2 cell culture in an amount to be 0.15625, 0.3125, 0.625, 1.25, 2.5, 5 or 10 μM in terms of SN-38 monomer. After cultivating for 48 hours, the cell viability was measured by a colorimetric method using Cell Counting Kit-8 (manufactured by DOJINDO) and microplate reader (manufactured by BIO-RAD). […] In addition, it became obvious that when SN-38 was dimerized via ester bond or urethane bond, or further nanoparticulated, the anticancer activity thereof can be retained (FIG. 3).
Further, two kinds of aqueous dispersion solution of SN-38 dimer nanoparticles were left at room temperature for about one week, thus prepared aging sample.
In FIG. 3 and FIG. 4, there was no difference in the anticancer activity against HepG2 between the binding modes included in the SN-38 dimer nanoparticles, namely, ester bond and urethane bond. That is, both bonds are expected to be decomposed at about the same speed in the solution, and SN-38 monomers are formed. To confirm this, SN-38 is dimerized with low degradable ether bond, further subjected to aging, then studied the anticancer activity against HepG2. The treatment concentration at this time was made 0.1, 1, 10 μM in terms of SN-38.
For orientation: Tetrazolium assays rely on reduction of a dye to a coloured formazan, in cell work by metabolically active cells.

The nature of series [2]: Particle size of dimer nanoparticles in aqueous dispersion made by reprecipitation. The format is physicochemical. The conditions noted are these: 5 mM DMSO solution injected into water at room temperature, final concentration 0.05 mM. The protocol: Dimer of SN-38 and succinic acid was weighed out to be 5 mM, and dissolved in DMSO 150 μl. Using water as poor solvent, 100 μl of the DMSO solution was injected into water 10 ml with syringe at room temperature, thus aqueous dispersion solution of dimer nanoparticles was prepared. Final concentration of the aqueous dispersion solution was 0.05 mM. The particle size was 50 nm (FIG. 1).
Dimer of SN-38 and tetramethylene diisocyanate was weighed out to be 5 mM, and dissolved in 150 μl of DMSO. Using water as poor solvent, 100 μl of the DMSO solution was injected into water 10 ml with syringe at room temperature, thus aqueous dispersion solution of dimer nanoparticles was prepared. Final concentration of the aqueous dispersion solution was 0.05 mM. The particle size was 50 nm (FIG. 2).
Dimer of betamethasone valerate and succinic acid was weighed out to be 5 mM, and dissolved in 150 μl of DMSO. Using water as poor solvent, 100 μl of the DMSO solution was injected into water 10 ml with syringe at room temperature, thus aqueous dispersion solution of dimer nanoparticles was prepared. Final concentration of the aqueous dispersion solution was 0.05 mM. The particle size was 150 nm (FIG. 2).

For series [3] the following is noted: cited from earlier work.

As for `CCc1c2c(nc3ccc(OC(=O)N4CCC(N5CCCCC5)CC4)cc13)-c1cc3c(c(=O)n1C2)COC(=O)[C@]3(O)CC` [irinotecan, 7-ethyl-10-[4-(1-piperidino)-1-piperidino]carbonyloxycamptothecin, reference compound], the “anticancer activity against HepG2 (cell viability)” value in series [1] is listed as “almost no anticancer activity”.

Compound `CCc1c2c(nc3ccc(OC(=O)CCC(=O)Oc4ccc5nc6c(c(CC)c5c4)Cn4c-6cc5c(c4=O)COC(=O)C5(O)CC)cc13)-c1cc3c(c(=O)n1C2)COC(=O)C3(O)CC` (centres unmarked) [Compound 18-(b), succinic acid bis(7-ethylcamptothecin-10-yl)ester] gave a particle size in series [2] of 50 nm. Besides, in series [1], the “anticancer activity against HepG2 (cell viability)” value is reported as “remarkable anticancer activity”.

On to `CCc1c2c(nc3ccc(O)cc13)-c1cc3c(c(=O)n1C2)COC(=O)[C@]3(O)CC` [SN-38, 10-hydroxy-7-ethylcamptothecin, reference compound], for which the water-solubility entry in series [3] is recorded as “extremely poor”. Also, in series [1], the “anticancer activity against HepG2 (cell viability)” value is reported as “remarkable anticancer activity”.

Take `CC[C@@]1(O)C(=O)OCc2c1cc1n(c2=O)Cc2cc3ccccc3nc2-1` [Camptothecin]: the water-solubility result in series [3] is “extremely insoluble in water”.

Turning to `CCc1c2c(nc3ccc(OC/C=C/COc4ccc5nc6c(c(CC)c5c4)Cn4c-6cc5c(c4=O)COC(=O)C5(O)CC)cc13)-c1cc3c(c(=O)n1C2)COC(=O)C3(O)CC` (centres unmarked) [Compound 18-(d), bis(7-ethylcamptothecin-10-oxy)2-buten ether], in series [1] (0.1, 1, 10 μM in terms of SN-38, FIG. 5), the “anticancer activity against HepG2” value was “almost disappeared”. The “aging effect on anticancer activity against HepG2” value in series [1] (0.1, 1, 10 μM in terms of SN-38, aged sample, FIG. 5) is “little”.

Consider `CCc1c2c(nc3ccc(OC(=O)NCCCCNC(=O)Oc4ccc5nc6c(c(CC)c5c4)Cn4c-6cc5c(c4=O)COC(=O)C5(O)CC)cc13)-c1cc3c(c(=O)n1C2)COC(=O)C3(O)CC` (centres unmarked) [Compound 18-(c), butylene bis(7-ethylcamptothecin-10-yl)amide], for which the particle size in series [2] is 50 nm. Besides, the “anticancer activity against HepG2 (cell viability)” value in series [1] is given as “remarkable anticancer activity”.

Turning to `CCCCC(=O)O[C@]1(C(=O)COC(=O)CCC(=O)OCC(=O)[C@@]2(OC(=O)CCCC)[C@@H](C)C[C@H]3[C@@H]4CCC5=CC(=O)C=C[C@]5(C)[C@@]4(F)[C@@H](O)C[C@@]32C)[C@@H](C)C[C@H]2[C@@H]3CCC4=CC(=O)C=C[C@]4(C)[C@@]3(F)[C@@H](O)C[C@@]21C` [Compound 19-(b)], the particle size in series [2] came out at 150 nm.
